Reference: patent US4226610A, “Herbicidal compounds, preparation thereof and herbicides containing the same” (Meiji Selka Kaisha, Ltd., priority 1978, dated 1980)
Values after ≈ are worked out from the molar mass of the structure shown.

Tests used:
torch azalea = experiment: Experiment 3 foliar application to naturally growing shrubs; type: in vivo, Rhododendoron Kaempferi Planch.; settings: for Reproduction-inhibiting: after 3 months; as to Reproduction-inhibiting: key: -: no reproduction, namely complete suppression of reproduction; ±: remarkable suppression of reproduction; +: considerable suppression of reproduction; ++: medium supprestion of reproduction; +++: no suppression of reproduction
Method in brief: (§1)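 Naturally growing shrubs were sprayed on the foliage at 150 liter per 10 are. Plant kill was then scored from 0 to 5 at 1 and 3 months, and reproduction was graded − to +++ at 3 months.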

white clover = experiment: Experiment 1 foliar application to naturally growing weeds; type: in vivo, Trifolium repens L.; settings: for Reproduction-inhibiting effect: 4 months
Method in brief: (§2)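 Naturally growing weeds receive a foliar spray of compound at prescribed concentrations, 150 liter per 10 are, containing 0.1% octylphenyl polyoxyethanol. Kill is rated 0 (no effect) to 5 (death) after 21 days. Regrowth is rated (-) to (+++) after 4 months, or 2 months for cockspar grass.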

lace shrub = experiment: Experiment 3 foliar application to naturally growing shrubs; type: in vivo, Stephanandra incisa Zabel
Method in brief: as §1

purple nutsedge = experiment: Experiment 1 foliar application to naturally growing weeds; type: in vivo, Cyperus rotundus L.; settings: 4 months; also: key: -: no reproduction, namely complete suppression of reproduction; ±: remarkable suppression of reproduction; +: considerable suppression of reproduction; ++: medium supprestion of reproduction; +++: no suppression of reproduction
Method in brief: as §2

chigaya = experiment: as above; type: in vivo, Imperata cylindrica Beauv.; settings: for Reproduction-inhibiting effect: 4 months
Method in brief: (§3)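 Foliar spray on field weeds at 150 liter per 10 are, compounds at prescribed concentrations plus 0.1% octylphenyl polyoxyethanol. Day 21: killing index 0–5 (5 = death). Reproduction scored (-) to (+++) (- = none): cockspar grass at 2 months, chigaya, azumanezasa and warunasubi at 4 months.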

salvinia = experiment: Experiment 7 application to water; type: in vivo, Salvinia natans Allioni; set-up: scale not given here
Source text: A black soil was packed in 50 cm. square concrete pots and water was poured there-onto at 50 cm. in depth. Hornwort (Ceratophyllum demersum L.), stonewort (Chara Braunii Gmel.) and salvinia (Salvinia natans All.) were transplanted and pond scum (Spirogira crassa Kutz) and diatoms (Bacillariophyta) were floated in the water.
Then, the compounds of the invention were applied dropwise onto the surface of the water so that the prescribed concentrations in the water are obtained as indicated in Table 9.

azumanezasa = experiment: Experiment 1 foliar application to naturally growing weeds; type: in vivo, Pleioblastus Chino Makino; settings: for Reproduction-inhibiting effect: 4 months; for Killing index of Upperground parts: 21 days
Method in brief: as §3

eulalia = experiment: Experiment 2 foliar application in Japanese cypress afforested land; type: in vivo, Miscanthus sinensis Andress.; set-up: key: 0 = no effect, 5 = death; settings: after 3 months
Method in brief: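 Field foliar spray on shrubs in Japanese cypress afforested land at 150 liter per 10 are, with compounds at prescribed concentrations. Killing index scored from 0 (no effect) to 5 (death) at 30 days and 3 months. Plant heights ranged from about 50 to 100 cm.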

hedge bindweed = experiment: Experiment 1 foliar application to naturally growing weeds; type: in vivo, Calystegis hederacea Wall.; settings: 4 months; also: key: -: no reproduction, namely complete suppression of reproduction; ±: remarkable suppression of reproduction; +: considerable suppression of reproduction; ++: medium supprestion of reproduction; +++: no suppression of reproduction
Method in brief: as §2

water hyacinth = experiment: Experiment 5 foliar application to water hyacinths; type: in vivo, Eichhornia crassipes Solms; settings: 3 months; also: key: -: no reproduction, namely complete suppression of reproduction; ±: remarkable suppression of reproduction; +: considerable suppression of reproduction; ++: medium supprestion of reproduction; +++: no suppression of reproduction
Method in brief: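 Two plants floated in fertilized water per vessel, sprayed foliarly with 0.1 or 0.2% aqueous compound solutions at 100 liter per 10 are plus 0.1% octylphenyl polyoxyethanol. Killing index (0 no effect to 5 death) scored at 21 days and 3 months; reproduction inhibition scored (-) to (+++) at 3 months.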

yabugarashi = experiment: Experiment 1 foliar application to naturally growing weeds; type: in vivo, Cayratia japonica Houtt.; settings: for Reproduction-inhibiting effect: 4 months
Method in brief: as §2

miyakozasa = experiment: Experiment 2 foliar application in Japanese cypress afforested land; type: in vivo, Sasa nipponica Makino et Shibata; settings: 0.125%; after 3 months
Procedure: The detail of the assessment made in the following Experiments of the invention was as follows:
The compounds of the invention and other compounds listed in Table 4. were diluted to prescribed concentrations and sprayed to shrubs by foliar application in a Japanese cypress afforested land in an amount of 150 liter per 10 are.
After 30 days and 3 months, the killing index (0, no effect; 5, death) was determined.
The heights of plants were 50-70 cm. for Japanese cypress, about 50 cm. for chestnut, 50-90 cm. for miyakozasa, about 100 cm. for eulalia and 70-100 cm. for kumaichigo, respectively.

Solubility (Table 1) = settings: ethanol, organic solvent or mixture

## CP(=O)(O)CCC(N)C(=O)O (racemic) [DL-AMPB choline]
Torch azalea; 0.05%
  Reproduction-inhibiting: ++
Torch azalea; 0.1%
  Reproduction-inhibiting: -
Torch azalea; 0.2%
  Reproduction-inhibiting: -
White clover; 0.05%
  Reproduction-inhibiting effect: ++
White clover; 0.05%, 21 days
  Killing index of Upperground parts: 1.5
White clover; 0.1%
  Reproduction-inhibiting effect: ±
White clover; 0.2%
  Reproduction-inhibiting effect: -
Lace shrub; 0.05%, after 3 months
  Reproduction-inhibiting: ++
Lace shrub; 0.1%, after 3 months
  Reproduction-inhibiting: -
Lace shrub; 0.2%, after 3 months
  Reproduction-inhibiting: -
Purple nutsedge; 0.05%
  Reproduction-inhibiting effect: ++
Purple nutsedge; 0.1%
  Reproduction-inhibiting effect: +
Purple nutsedge; 0.2%
  Reproduction-inhibiting effect: ±
chigaya; 0.05%
  Reproduction-inhibiting effect: ++
chigaya; 0.1%
  Reproduction-inhibiting effect: -
chigaya; 0.1%, 21 days
  Killing index of Upperground parts: 4.5
chigaya; 0.2%
  Reproduction-inhibiting effect: -
salvinia; 1 ppm, 3 months
  controlling effect: 2
salvinia; 1 ppm, 21 days
  controlling effect: 3
salvinia; 3 ppm, 3 months
  controlling effect: 5
salvinia; 3 ppm, 21 days
  controlling effect: 4
salvinia; 10 ppm, 3 months
  controlling effect: 5
salvinia; 10 ppm, 21 days
  controlling effect: 5
azumanezasa; 0.05%
  Reproduction-inhibiting effect: ++
  Killing index of Upperground parts: 1.5
azumanezasa; 0.1%
  Reproduction-inhibiting effect: ±
  Killing index of Upperground parts: 3.5
azumanezasa; 0.2%
  Reproduction-inhibiting effect: -
eulalia; 0.125%
  Killing index: 4.5
Hedge bindweed; 0.05%
  Reproduction-inhibiting effect: ++
Hedge bindweed; 0.1%
  Reproduction-inhibiting effect: ±
Hedge bindweed; 0.2%
  Reproduction-inhibiting effect: -
Water hyacinth; 0.1%
  Reproduction-inhibiting effect: +
Water hyacinth; 0.2%
  Reproduction-inhibiting effect: -
yabugarashi; 0.05%
  Reproduction-inhibiting effect: ++
yabugarashi; 0.1%
  Reproduction-inhibiting effect: ±
yabugarashi; 0.2%
  Reproduction-inhibiting effect: -

## CP(=O)(O)CC[C@H](N)C(=O)O [L-AMPB choline, L-2-Amino-4-methylphosphino-butanoic acid choline]
Torch azalea; 0.05%
  Reproduction-inhibiting: -
Torch azalea; 0.1%
  Reproduction-inhibiting: -
Torch azalea; 0.2%
  Reproduction-inhibiting: -
White clover; 0.05%
  Reproduction-inhibiting effect: ±
White clover; 0.1%
  Reproduction-inhibiting effect: -
White clover; 0.2%
  Reproduction-inhibiting effect: -
Lace shrub; 0.05%, after 3 months
  Killing index: 4.5
  Reproduction-inhibiting: ±
Lace shrub; 0.05%, after 30 days
  Killing index: 4.5
Lace shrub; 0.1%, after 3 months
  Reproduction-inhibiting: -
Lace shrub; 0.2%, after 3 months
  Reproduction-inhibiting: -
Purple nutsedge; 0.05%
  Reproduction-inhibiting effect: +
Purple nutsedge; 0.1%
  Reproduction-inhibiting effect: ±
Purple nutsedge; 0.2%
  Reproduction-inhibiting effect: -
chigaya; 0.05%
  Reproduction-inhibiting effect: -
chigaya; 0.1%
  Reproduction-inhibiting effect: -
chigaya; 0.2%
  Reproduction-inhibiting effect: -
salvinia; 1 ppm, 3 months
  controlling effect: 5
salvinia; 1 ppm, 21 days
  controlling effect: 4
salvinia; 3 ppm, 3 months
  controlling effect: 5
salvinia; 3 ppm, 21 days
  controlling effect: 5
salvinia; 10 ppm, 3 months
  controlling effect: 5
salvinia; 10 ppm, 21 days
  controlling effect: 5
azumanezasa; 0.05%
  Reproduction-inhibiting effect: ±
azumanezasa; 0.1%
  Reproduction-inhibiting effect: -
azumanezasa; 0.2%
  Reproduction-inhibiting effect: -
eulalia; 0.063%
  Killing index: 3.5
Hedge bindweed; 0.05%
  Reproduction-inhibiting effect: ±
Hedge bindweed; 0.1%
  Reproduction-inhibiting effect: -
Hedge bindweed; 0.2%
  Reproduction-inhibiting effect: -
Water hyacinth; 0.1%
  Reproduction-inhibiting effect: -
Water hyacinth; 0.2%
  Reproduction-inhibiting effect: -
yabugarashi; 0.05%
  Reproduction-inhibiting effect: ±
yabugarashi; 0.1%
  Reproduction-inhibiting effect: -
yabugarashi; 0.2%
  Reproduction-inhibiting effect: -

## C[C@H](NC(=O)[C@H](C)NC(=O)[C@@H](N)CCP(C)(=O)O)C(=O)O [SF-1293 choline, (L-2-Amino-4-methylphosphinobutyryl)-L-alanyl-L-alanine choline]
Torch azalea; 0.05%
  Reproduction-inhibiting: ++
Torch azalea; 0.1%
  Reproduction-inhibiting: -
Torch azalea; 0.1%, after 30 days
  Killing index: 4.5
Torch azalea; 0.2%
  Reproduction-inhibiting: -
White clover; 0.05%
  Reproduction-inhibiting effect: +
White clover; 0.1%
  Reproduction-inhibiting effect: -
White clover; 0.2%
  Reproduction-inhibiting effect: -
Lace shrub; 0.05%, after 3 months
  Reproduction-inhibiting: ++
Lace shrub; 0.1%, after 3 months
  Reproduction-inhibiting: -
Lace shrub; 0.2%, after 3 months
  Reproduction-inhibiting: -
Purple nutsedge; 0.05%
  Reproduction-inhibiting effect: ++
Purple nutsedge; 0.1%
  Reproduction-inhibiting effect: +
Purple nutsedge; 0.2%
  Reproduction-inhibiting effect: ±
chigaya; 0.05%
  Reproduction-inhibiting effect: +
chigaya; 0.1%
  Reproduction-inhibiting effect: -
chigaya; 0.2%
  Reproduction-inhibiting effect: -
salvinia; 1 ppm, 3 months
  controlling effect: 3
salvinia; 1 ppm, 21 days
  controlling effect: 3.5
salvinia; 3 ppm, 3 months
  controlling effect: 5
salvinia; 3 ppm, 21 days
  controlling effect: 4.5
salvinia; 10 ppm, 3 months
  controlling effect: 5
salvinia; 10 ppm, 21 days
  controlling effect: 5
azumanezasa; 0.05%
  Reproduction-inhibiting effect: +
azumanezasa; 0.1%
  Reproduction-inhibiting effect: -
azumanezasa; 0.2%
  Reproduction-inhibiting effect: -
miyakozasa
  Killing index: 4.5
Solubility (Table 1)
  solubility: 310 mg/mL (≈ 959 mM)
eulalia; 0.125%
  Killing index: 4.5
Hedge bindweed; 0.05%
  Reproduction-inhibiting effect: +
Hedge bindweed; 0.1%
  Reproduction-inhibiting effect: ±
Hedge bindweed; 0.2%
  Reproduction-inhibiting effect: -
Water hyacinth; 0.1%
  Reproduction-inhibiting effect: ±
Water hyacinth; 0.2%
  Reproduction-inhibiting effect: -
yabugarashi; 0.05%
  Reproduction-inhibiting effect: ++
yabugarashi; 0.05%, 21 days
  Killing index of Upperground parts: 3.5
yabugarashi; 0.1%
  Reproduction-inhibiting effect: ±
yabugarashi; 0.2%
  Reproduction-inhibiting effect: -
